Assay results as given in PubChem BioAssay AID192 (DTP/NCI, 2004).
Several values for one entry are separate records, joined by “and”; a condition that tells them apart may be missing. Equal entries are not always repeated. Toxic doses and inconclusive results are not listed. How the source made its calls: active means survival T/C of 150% or more; inactive means T/C below 125% in these data.

System: BDF1 mice, B16 melanoma ip, median survival T/C
Experiment: NCI In Vivo Anticancer Drug Screen. Data for tumor model B16 Melanoma (intraperitoneal) in B6D2F1 (BDF1) mice
Settings: endpoint: median survival time, higher = longer survival
How it was run: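 The ratio T/C compares compound-treated mice with vehicle-treated controls, using survival or tumor size as the endpoint in a transplantable tumor model.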

[1] = dose: 50.0 mg/kg/injection, schedule: Q01DX009 (ip), vehicle: saline with Tween-80
[2] = dose: 100.0 mg/kg/injection, schedule: Q01DX009 (ip), vehicle: saline with Tween-80
[3] = dose: 200.0 mg/kg/injection, schedule: Q01DX009 (ip), vehicle: saline with Tween-80
[4] = dose: 400.0 mg/kg/injection, schedule: Q01DX009 (ip), vehicle: saline with Tween-80
[5] = dose: 50.0 mg/kg/injection, schedule: Q01DX009 (ip), vehicle: other
[6] = dose: 100.0 mg/kg/injection, schedule: Q01DX009 (ip), vehicle: other
[7] = dose: 100.0 mg/kg/injection, schedule: Q01DX009 (ip), vehicle: Klucel (hydroxypropylcellulose) (HPC)
[8] = dose: 200.0 mg/kg/injection, schedule: Q01DX009 (ip), vehicle: Klucel (hydroxypropylcellulose) (HPC)
[9] = dose: 400.0 mg/kg/injection, schedule: Q01DX009 (ip), vehicle: Klucel (hydroxypropylcellulose) (HPC)
[10] = dose: 12.5 mg/kg/injection, schedule: Q01DX009 (ip), vehicle: saline
[11] = dose: 25.0 mg/kg/injection, schedule: Q01DX009 (ip), vehicle: saline
[12] = dose: 50.0 mg/kg/injection, schedule: Q01DX009 (ip), vehicle: Klucel (hydroxypropylcellulose) (HPC)

Measured: T/C

CCCCn1ccnc1C
inactive: dose: 6.25 mg/kg/injection, schedule: Q01DX009 (ip), vehicle: water 106 % of control | dose: 12.5 mg/kg/injection, schedule: Q01DX009 (ip), vehicle: water 91 % of control | dose: 25.0 mg/kg/injection, schedule: Q01DX009 (ip), vehicle: water 101 % of control | dose: 50.0 mg/kg/injection, schedule: Q01DX009 (ip), vehicle: water 102 % of control

CC(CNCCN)C[Si](C)(C)C (stereo not given)
inactive: dose: 12.5 mg/kg/injection, schedule: Q01DX009 (ip), vehicle: suspension in saline 99 % of control | dose: 25.0 mg/kg/injection, schedule: Q01DX009 (ip), vehicle: suspension in saline 96 % of control

C[n+]1c(-c2cccc(OCCCCCCCOc3cccc(-c4c5cc(N)ccc5c5ccc(N)cc5[n+]4C)c3)c2)c2cc(N)ccc2c2ccc(N)cc21
inactive: dose: 0.02 mg/kg/injection, schedule: Q01DX009 (ip), vehicle: water 95 % of control | dose: 0.04 mg/kg/injection, schedule: Q01DX009 (ip), vehicle: water 123 % of control

C=C(C)[C@@H]1CC[C@]2(C)CC[C@]3(C)[C@H](CC[C@@H]4[C@@]5(C)CC[C@H](O)C(C)(C)[C@@H]5CC[C@]43C)[C@@H]12
inactive: dose: 0.75 mg/kg/injection, schedule: Q01DX009 (ip), vehicle: Klucel (hydroxypropylcellulose) (HPC) 101 % of control | dose: 1.5 mg/kg/injection, schedule: Q01DX009 (ip), vehicle: Klucel (hydroxypropylcellulose) (HPC) 95 % of control | dose: 3.0 mg/kg/injection, schedule: Q01DX009 (ip), vehicle: Klucel (hydroxypropylcellulose) (HPC) 95 % of control

c1cc[c]([Sn]([S][Sn]([c]2ccccc2)([c]2ccccc2)[c]2ccccc2)([c]2ccccc2)[c]2ccccc2)cc1
inactive: [1] 99 % of control | [2] 93 % of control | [3] 92 % of control | [4] 86 % of control

CCCCCCCC(=O)CCCCC
inactive: [5] 90 % of control | [6] 94 % of control | dose: 200.0 mg/kg/injection, schedule: Q01DX009 (ip), vehicle: other 100 % of control

CC(=Nc1ccccc1)C1=C(O)C(Cc2ccccc2)NC1=O (stereo not given)
inactive: dose: 12.5 mg/kg/injection, schedule: Q01DX009 (ip), vehicle: saline with Tween-80 100 % of control | dose: 25.0 mg/kg/injection, schedule: Q01DX009 (ip), vehicle: saline with Tween-80 102 % of control | [1] 106 % of control | [2] 98 % of control and 100 % of control

c1cc2cc3c(cc2c2c1CC1c4cc5c(cc4CCN1C2)OCO5)OCO3 (stereo not given)
inactive: [7] 89 % of control | [8] 86 % of control

NNC(=O)c1ccc(-c2ccccc2)cc1
inactive: dose: 12.5 mg/kg/injection, schedule: Q01DX009 (ip), vehicle: other 93 % of control | dose: 25.0 mg/kg/injection, schedule: Q01DX009 (ip), vehicle: other 95 % of control | [5] 100 % of control | [6] 100 % of control

COc1nc(NC(C)C)nc(NC(C)C)n1
inactive: [1] 102 % of control | dose: 66.0 mg/kg/injection, schedule: Q01DX009 (ip), vehicle: saline with Tween-80 93 % of control | [2] 86 % of control | dose: 150.0 mg/kg/injection, schedule: Q01DX009 (ip), vehicle: saline with Tween-80 97 % of control | [3] 105 % of control

NC(=O)NO
inactive: dose: 37.5 mg/kg/injection, schedule: Q03HX024 (ip), vehicle: saline 95 % of control and 100 % of control | dose: 75.0 mg/kg/injection, schedule: Q03HX024 (ip), vehicle: saline 95 % of control | dose: 150.0 mg/kg/injection, schedule: Q01DX009 (ip), vehicle: water 95 % of control | dose: 150.0 mg/kg/injection, schedule: Q01DX017 (ip), vehicle: water 93 % of control | dose: 150.0 mg/kg/injection, schedule: Q## X009 (ip), vehicle: water 95 % of control | dose: 300.0 mg/kg/injection, schedule: Q01DX009 (ip), vehicle: water 100 % of control | dose: 300.0 mg/kg/injection, schedule: Q01DX017 (ip), vehicle: water 97 % of control | dose: 300.0 mg/kg/injection, schedule: Q## X009 (ip), vehicle: water 93 % of control | dose: 600.0 mg/kg/injection, schedule: Q## X009 (ip), vehicle: water 100 % of control | dose: 2400.0 mg/kg/injection, schedule: Q01DX001 (ip), vehicle: water 100 % of control

O=[N+]([O-])c1cccc([N+](=O)[O-])c1Cl
inactive: dose: 10.0 mg/kg/injection, schedule: Q01DX009 (ip), vehicle: saline with Tween-80 99 % of control | dose: 20.0 mg/kg/injection, schedule: Q01DX009 (ip), vehicle: saline with Tween-80 94 % of control | dose: 40.0 mg/kg/injection, schedule: Q01DX009 (ip), vehicle: saline with Tween-80 95 % of control | dose: 80.0 mg/kg/injection, schedule: Q01DX009 (ip), vehicle: saline with Tween-80 93 % of control | dose: 160.0 mg/kg/injection, schedule: Q01DX009 (ip), vehicle: saline with Tween-80 91 % of control

N#CC(Cc1ccccc1Cl)(Cc1ccccc1Cl)c1ccccc1
inactive: [7] 100 % of control | [8] 105 % of control | [9] 105 % of control

OC12CCC[N+]1(Cc1ccccc1)CCC2 (stereo not given)
inactive: [10] 109 % of control | [11] 109 % of control | dose: 50.0 mg/kg/injection, schedule: Q01DX009 (ip), vehicle: saline 102 % of control

C[C@]12CC[C@@H]3c4ccc(O)cc4CC[C@H]3[C@@H]1C[C@@H](O)[C@@H]2O
inactive: [12] 102 % of control | [7] 100 % of control | [8] 90 % of control

[Cl][Ge]([Cl])([c]1ccccc1)[c]1ccccc1
inactive: dose: 25.0 mg/kg/injection, schedule: Q01DX009 (ip), vehicle: Klucel (hydroxypropylcellulose) (HPC) 93 % of control | [12] 100 % of control

CC([NH-])C[NH-].[Cl][Pt+2][Cl] (stereo not given)
inactive: dose: 0.31 mg/kg/injection, schedule: Q01DX009 (ip), vehicle: saline 102 % of control | dose: 0.31 mg/kg/injection, schedule: Q04DX003 (ip), vehicle: saline 89 % of control | dose: 0.62 mg/kg/injection, schedule: Q01DX009 (ip), vehicle: saline 112 % of control | dose: 0.62 mg/kg/injection, schedule: Q04DX003 (ip), vehicle: saline 100 % of control | dose: 1.25 mg/kg/injection, schedule: Q01DX009 (ip), vehicle: saline 110 % of control | dose: 1.25 mg/kg/injection, schedule: Q04DX003 (ip), vehicle: saline 107 % of control

Cc1ccc(C(=O)NCCCOc2ccc(N3C(N)=NC(N)=NC3(C)C)cc2Cl)cc1S(=O)(=O)F
inactive: [10] 96 % of control | [11] 91 % of control

C/C(C/C(C)=N/O)=N/O.C/C(C/C(C)=N/O)=N\O.[Cl][Rh][Cl]
inactive: [1] 96 % of control | [2] 98 % of control | [3] 96 % of control | [4] 92 % of control

CN(C)C=Nc1ccccc1
inactive: [7] 100 % of control | [8] 112 % of control | [9] 109 % of control

CC(Br)C(=O)NC(CO)C(=O)O (stereo not given)
inactive: [2] 94 % of control | dose: 100.0 mg/kg/injection, schedule: Q04DX003 (ip), vehicle: saline with Tween-80 108 % of control | [3] 99 % of control | dose: 200.0 mg/kg/injection, schedule: Q04DX003 (ip), vehicle: saline with Tween-80 113 % of control | [4] 86 % of control | dose: 400.0 mg/kg/injection, schedule: Q04DX003 (ip), vehicle: saline with Tween-80 108 % of control
